Measured values published in US20210038559A1, “CANNABINOIDS AND DERIVATIVES FOR PROMOTING IMMUNOGENICITY OF TUMOR AND INFECTED CELLS” (priority 2018, published 2021).

What was measured:
[1] = system: MHC class I expression, mouse Lewis lung carcinoma cell line A9; experiment: MHC class I expression in mouse A9 Lewis lung carcinoma cells, 24 hours, flow cytometry; format: cell-based; details: 21 μM, relative to the DMSO control
Description: FIG. 1A-1B. Cannabigerol stimulates MHC class I expression in the mouse A9 Lewis lung carcinoma (FIG. 1A) and the human COLO 205 colorectal carcinoma (FIG. 1B) cell lines. Cells were treated for 24 hours with 21.2 μM (A) or 25 and 50 μM (FIG. 1B) cannabigerol.
Cannabigerol, a representative cannabinoid, was tested for its ability to also stimulate MHC class I expression in mammalian cancer cell lines. The mouse Lewis lung carcinoma cell line, A9, was treated with 21 μM of cannabigerol for 24 hours prior to flow cytometric analysis of cell surface expression of MHC class I expression levels using the MHC class I antibody W6/32 (Thermo Fisher). Control conditions included the vehicle, dimethyl sulfoxide (DMSO, 1%) alone, and 100 ng/ml of trichostatin A (TSA), a histone deacetylase inhibitor and known inducer of MHC class I expression in mammalian cells. […] The positive control, TSA, stimulated expression by 2.4-fold.

[2] = system: MHC class I expression on COLO 205 cells; experiment: MHC class I expression on COLO 205 cells, 24 hours, flow cytometry (W6/32); details: for MFI: W6/32 staining; for increase in MHC class I expression: 24 hours, relative to non-treated cells
Description: FIG. 2A-2F. […] Cells were treated for 24 hours and cell surface MHC class I expression was measured by flow cytometry.
Cannabigerol was also tested for its capacity to induce MHC class I expression in a human colorectal carcinoma cell line, COLO 205. The cells were treated with either 25 μM or 50 μM cannabigerol for 24 hours. Fluorophor (Alexa Fluor 488)-conjugated W6/32 antibody (Thermo Fisher) was used in a flow cytometry assay to quantitate MHC class I expression. […] Cannabigerol is only one of many cannabinoid-like molecules with potential biopharmaceutical activity. […] COLO 205 cells were treated with up to 40 μM of the cannabinoids 1-5 presented in Tables 1 and 2 and evaluated for cell surface MHC class I expression as described above for cannabigerol.

[3] = system: MHC-I expression on COLO 205 cells; experiment: Phytocannabinoid MHC-I induction on COLO 205 cells, 0-100 μM, 48 hours
Description: FIG. 4. Cell surface MHC class I expression was measured by flow cytometry (MFI).
Phytocannabinoids were tested for MHC-I-inducing activity on COLO 205 cells. Each cannabinoid was tested at a concentration range of 0-100 μM. […] “ND” indicates not determined.

A9 tumors = experiment: A9 tumor mouse model, intraperitoneal treatment; format: in vivo
Excerpt: FIG. 7A-7B. Number of live lymphocytes observed within the tumor of tumor bearing mice (n=8 for PBS negative control and Cannabigerol treatments, n=6 for TSA positive control). A9 tumors were present in mice for 7 days before intraperitoneal treatment, and mice were sacrificed 4-5 days after treatment. Cannabigerol upregulation of MHC-I expression attracts increased number of lymphocytes which can infiltrate the tumor.
To confirm the in vivo activity of cannabinoid compounds, a representative cannabinoid was tested in a representative animal model. A9 tumor cells were injected subcutaneously into mice at 8-10 weeks of age, and mice were treated 7 days later with either Cannabigerol, TSA, or Vehicle. 1×10^5 A9 cells were injected in a volume of 50 μL of PBS into the right flank of each mouse subcutaneously. Starting at day 7 after injection of the A9 tumor cells, intraperitoneal injections of Cannabigerol (Cayman Chemical Company) at 10 mg/kg, Trichostatin A (TSAX Sigma-Aldrich) at 0.5 mg/kg dissolved in 1% DMSO and PBS, or vehicle (0.2% DMSO, 5% Bovine Serum Albumin (BSA), in PBS) were administered daily to the animals. Cannabigerol was dissolved in 0.2% DMSO, 5% Bovine Serum Albumin, in PBS. Animals were weighed 3 times a week and during tumor measurements, and tumor measurements were begun upon appearance of the tumor, on […] of the trial. Tumor volume was determined using calipers to measure tumor dimensions. Mice were sacrificed at day 10, 11, and 12, as was dictated by subscribed humane endpoints, in which mice experienced tumor ulceration. Half of the tumors were removed from the mouse and immediately placed in digestion media (RPMI Medium 1640 (Gibco) with 10% FBS and Penicillin+Streptomycin (P+S), with the addition of 10% collagenase hyaluronidase, 15% DNAse I (Stemcell)). Tumors were chopped in 1 mL of digestion media and placed at a temperature of 35° C. for 30 minutes, before being passed through a 100 micron cell strainer (Falcon). […]

[4] = system: MHC class I expression, metastatic mouse tumor cell line; experiment: Indirect screen for compounds that increase MHC class I expression in a metastatic mouse tumor cell line; format: cell-based
Excerpt: An assay has been developed to indirectly screen for compounds that increase MHC class I expression in a metastatic mouse tumor cell line (U.S. patent Ser. No. 14/548,726, Jefferies et. al., published 28 May 2015). This assay identified numerous compounds that increased MHC expression. […] In addition, some other cannabinoids induce expression of MHC class I on tumor cells.

[5] = 10 mg/kg intraperitoneal daily from day 7, versus Vehicle treated group

## CCCCCc1cc(O)c(C/C=C(\C)CCC=C(C)C)c(O)c1 [Example 1, 2-[(2E)-3,7-dimethyl-2,6-octadien-1-yl]-5-pentyl-1,3-benzenediol]
[1]
  cell death: limited cell death
  increase in MHC class I expression: 1.8 fold
[2]; COLO 205, 10 μM
  MFI: 125
[2]; COLO 205, 20 μM
  MFI: 130
[2]; COLO 205, 25 μM
  increase in MHC class I expression: 25%
[2]; COLO 205, 30 μM
  MFI: 130
[2]; COLO 205, 40 μM
  MFI: 164
[2]; COLO 205, 50 μM
  increase in MHC class I expression: 2 fold
[2]; COLO 205, all treatment conditions (25 μM or 50 μM, 24 hours)
  Cell viability: > 95%
[2]; Homo sapiens, COLO 205
  fold induction at 10 µM: 1.03
  fold induction at 20 µM: 1.07
  fold induction at 30 µM: 1.07
  fold induction at 40 µM: 1.36
[3]; Homo sapiens, COLO 205, 48 h
  EC50: 40 µM
[3]; MHC-I expression on COLO 205 cells, 0-100 μM, 48 hours, relative to control cells treated only with buffer
  Fold Induction: 2.7 Fold
A9 tumors; 10 mg/kg intraperitoneal daily from day 7, relative to vehicle treated tumors
  absolute numbers of lymphocytes in tumors: Much higher
A9 tumors; [5]
  Mouse weight: similar
  tumor volume: similar
[4]
  activity in the MHC class I screening assay: significant activity
